Where two headings read alike, the source gives them in different places.
Key:
[1] = tested on: Wild type Chinese Hamster Ovary CHO-K1 cells (WT); assay: Fluorometry quantification of internalized CF-peptide in cell lysates; format: cell-based; details: for 4 °C - INTERNALIZED, WT (FLUOROMETRY) / 37 °C - INTERNALIZED, WT (FLUOROMETRY): fluorometry of lysate (50 mM Tris pH 7.4, 1 M NaCl, 1% NP40, sonicated), ex 494 nm, calibration curve, 10^6 cells, 7.5 μM peptide in DMEM, 60 min, mean ± spread, n in cell; for 4 °C - INTERNALIZED, WT (FLUOROMETRY): 4 °C (translocation only), 0.05% pronase digestion; for 37 °C - INTERNALIZED, WT (FLUOROMETRY): 0.05% trypsin/EDTA digestion, μM from 1 pL cell volume
Description: (§1) To quantify CPP internalization in cells, we kept the conditions of sample preparation for the measurement of the quantity of internalized and cell-associated (membrane-bound plus internalized) fluorescent peptides previously optimized for a MALDI-TOF MS based protocol, and illustrated in Fig. 3. Briefly, one million adherent cells were incubated with CF-CPP for the indicated time and temperature. […] Cells were then washed, lysed, sonicated and the lysate was cleared by centrifugation. The amount of internalized peptide was quantified by direct measurement of the fluorescence remaining in the supernatant. To evaluate the quantity of cell-associated (membrane-bound and internalized) peptide, the proteolytic step was omitted. A calibration curve was fitted from the fluorescence intensity of definite amounts of the same peptide in cell lysates ran in parallel for each experiment (Fig. 3). Comparison of the fluorescence intensity between the samples and the calibration curve permitted the absolute quantification of internalized and cell-associated peptides.
(§2) Figure 4 Quantification by fluorometry of (A) internalized and (B) membrane-bound CF-Penetratin in WT, GAG^deficient and SA^deficient CHO cells. One million cells were incubated with 2.5 or 7.5 μM CF-Penetratin in DMEM for 60 min at 37 °C or 4 °C. To measure the total cell-associated peptide (membrane-bound plus internalized), cells were washed and lysed in a buffer (50 mM Tris pH 7.4, 1 M NaCl, 1% Nonidet P40), sonicated and centrifuged 10 min at 16,000 g. To obtain the internalized peptide, the membrane-bound peptide was digested with 0.05% trypsin/EDTA (37 °C) or pronase (4 °C). After washes, cells were lysed, sonicated and centrifuged. To calculate the amount of internalized and membrane bound cell peptide, we compare the fluorescence intensity (excitation at 494 nm) to the calibration curve obtained from parallel experiments (see Fig. 3). Error bars correspond to standard errors obtained from n = 4 independent experiments for each experimental condition. Intracellular concentrations (μM) were calculated from the mean volume of one CHO cell (assimilated to a sphere of 10–15 μm diameter) being 1 pL: picomoles in 1 μL (10^6 cells) thus correspond to μM concentrations.
(§3) Wild type Chinese Hamster Ovary CHO-K1 cells (WT), xylose-transferase- or GAG-deficient CHO-pgsA745 cells (GAG^deficient) and sialic acid deficient CHO-lec2 cells (SA^deficient) (ATCC, LGC Standards S.a.r.l. - France) were cultured in F12 growth medium (DMEM-F12) supplemented with 10% fetal calf serum (FCS), penicillin (100,000 IU/L), streptomycin (100,000 IU/L), and amphotericin B (1 mg/L) in a humidified atmosphere containing 5% CO2 at 37 °C.
(§4) One million cells were incubated one hour at 37 °C or 4 °C with CF-Penetratin (2.5 μM and 7.5 μM), Biotin-(CF)Penetratin, CF-Arg9 and CF-TAT (7.5 μM) in 1 mL DMEM.
(§5) To access internalized peptides, after washing cells with HBSS, (0.05%) 500 μL trypsin/EDTA (37 °C, 5 min) or (0.05%) pronase (4 °C, 10 min) was added for 5 min to hydrolyze the remaining extracellular and the membrane-bound peptide and to detach cells. After addition of enzyme inhibitors (100 μL (one Complete Mini tablet, Roche, in 2.5 mL PBS) mixed with 100 μL bovine serum albumin (1 mg/mL), cells were transferred into a microtube, centrifuged, washed with 1 mL 50 mM Tris buffer pH 7.4, 0.1% BSA, and lysed in 200 μL 50 mM Tris pH 7.4, 1 M NaCl, 1% NP40. The samples were then sonicated for 30 min and centrifuged 10 min at 16,000 g.
(§6) To obtain the value of the total cell-associated peptide (internalized and membrane-bound species), after washing cells with HBSS, cells were directly lysed in 50 mM Tris pH 7.4, 1 M NaCl, 1% NP40. The samples were then sonicated for 30 min and centrifuged 10 min at 16,000 g.

[2] = tested on: GAG-deficient CHO-pgsA745 cells (GAG^deficient); details: fluorometry of lysate (50 mM Tris pH 7.4, 1 M NaCl, 1% NP40, sonicated), ex 494 nm, calibration curve, 10^6 cells, 7.5 μM peptide in DMEM, 60 min, mean ± spread, n in cell; for 4 °C - INTERNALIZED, GAG^deficient (FLUOROMETRY): pronase digestion; for 37 °C - INTERNALIZED, GAG^deficient (FLUOROMETRY): trypsin digestion
Description: as §1, §2, §3, §4, §5, §6

[3] = tested on: sialic acid deficient CHO-lec2 cells (SA^deficient); details: fluorometry of lysate (50 mM Tris pH 7.4, 1 M NaCl, 1% NP40, sonicated), ex 494 nm, calibration curve, 10^6 cells, 7.5 μM peptide in DMEM, 60 min, mean ± spread, n in cell; for 4 °C - INTERNALIZED, SA^deficient (FLUOROMETRY): pronase digestion; for 37 °C - INTERNALIZED, SA^deficient (FLUOROMETRY): trypsin digestion
Description: as §1, §2, §3, §4, §5, §6

[4] = tested on: CHO cells
Description: We examined the impact of the concentration of Trypan Blue on cell-associated fluorescence compared to control conditions in the absence of Trypan Blue. Cells were incubated with CF-Penetratin. After washings, different concentrations of Trypan Blue were added before cytometry analysis. […] We next examined the quenching ability of Trypan Blue on increasing CF-Penetratin concentrations.
Figure 7 Quenching assays of membrane-bound fluorescence for flow cytometry internalization quantification. (A) Fluorescence quenching according to Trypan Blue quantity (% in g for 100 mL). […] After washing with cold PBS, cells were analyzed in the absence or the presence of Trypan Blue. Lower panel: Stern-Volmer plot. (B) Quenching of membrane fluorescence was assayed with various experimental conditions: 0.2% Trypan Blue, 0.01% trypsin (5 min, 37 °C), 0.5 mg/mL heparin (3 times 5 min, 37 °C). 20,000 events were recorded for each experimental condition. Data were normalized to 100% fluorescence in the absence of Trypan Blue.
Cells were dissociated with 0.5 mM EDTA in PBS (5 min at 37 °C), centrifuged at 800 g, and suspended in DMEM culture medium. […] To optimize fluorescence quenching of the membrane-bound fluorescein, the cell suspension was treated with different concentrations of Trypan Blue. […] 20,000 events were recorded for every experimental conditions.

[5] = tested on: GAG-deficient CHO-pgsA745 cells (GAG^deficient); details: MALDI-TOF MS of lysate, 2H-peptide internal standard, 10^6 adherent cells, 7.5 μM extracellular peptide, 1 h, ref [19], cited from earlier work
[6] = tested on: Wild type Chinese Hamster Ovary CHO-K1 cells (WT); details: MALDI-TOF MS of lysate, 2H-peptide internal standard, 10^6 adherent cells, 7.5 μM extracellular peptide, 1 h, ref [19], cited from earlier work
[7] = tested on: sialic acid deficient CHO-lec2 cells (SA^deficient); details: MALDI-TOF MS of lysate, 2H-peptide internal standard, 10^6 adherent cells, 7.5 μM extracellular peptide, 1 h, ref [19], cited from earlier work
[8] = tested on: CHO cells; assay: Cytotoxicity, Cell Counting Kit 8 (CCK-8); format: cell-based, Chinese Hamster; details: 2 × 10^4 CHO cells/well, peptide 1; 5; 10 and 20 μM, 60 min, then 3 h 10% CCK-8, absorbance 450 nm
Description: Cytotoxicity was determined with the Cell Counting Kit 8 (CCK-8) from Dojindo Molecular Technologies. This colorimetric assay allows to measure the viability of cells. 96-well plates were inoculated with 100 μL/well of a suspension of CHO cells (2.10^4 cells/well). […] After washing, the cells were incubated with 100 μL of 10% CCK-8 in DMEM for 3 hours and the absorbance was measured at 450 nm with a microplate reader (Polarstar Optima). Controls corresponded to untreated cells (negative control, 100% viability) and cells treated with 0.2% of Triton X-100 (positive control, 0% viability). Supplementary Figure S1. […] A 96-well plate was inoculated with 100 µL/well of a suspension of CHO cells (2 × 10^4 cells/well). […] Controls corresponded to untreated cells (negative control, 100% viability) and cells treated with 0.2% of Triton X-100 (positive control, 0% viability).

[9] = tested on: GAG-deficient CHO-pgsA745 cells (GAG^deficient); details: MALDI-TOF MS (sinapinic acid matrix), 2H-peptide internal standard, 10^6 adherent cells, 7.5 μM extracellular peptide, 1 h, trypsin digestion
Description: as §1, §3
(§7) The protocol has been fully described elsewhere by Burlina et al.[14][16]. Briefly, one million adherent cells were incubated one hour with biotin-labeled peptides (^1H-CPP). After washing with HBSS, 0.05% trypsin/EDTA (37 °C, 5 min) or 0.05% pronase (4 °C, 10 min) digestion, cells were lysed in a solution containing a relevant quantity of the deuterated form (^2H-CPP) of the same peptide sequence, which is used as internal standard to quantify the internalized amount of ^1H-CPP. MALDI-TOF MS analyses were done using cyano-4-hydroxy-cinnamic acid (CHCA), for Biotin-Penetratin or sinapinic acid for Biotin-(CF)Penetratin. Unless indicated, experiments were performed in triplicates and repeated at least three times independently.

[10] = tested on: Wild type Chinese Hamster Ovary CHO-K1 cells (WT); details: 7.5 μM extracellular peptide
Description: as §1, §3, §7

[11] = 37 °C, trypsin digestion, μM from 1 pL cell volume

Substance: Carboxyfluorescein-Apa-RQIKIWFQNRRMKWKK-NH2 [CF-PEN]
- 4 °C - INTERNALIZED, WT (FLUOROMETRY) [1]: 2.4 ± 0.4 (n = 3) μM
- 4 °C - INTERNALIZED, WT (FLUOROMETRY) ([1]; listed as CF-Penetratin): 1 to 2 µM
- 37 °C - INTERNALIZED, WT (FLUOROMETRY) [1]: 22 ± 1.3 (n = 11) μM
- ratio of total cell-associated to internalized peptide by fluorometry ([1]; fluorometry of lysates, cell line not given): ~100 folds
- 4 °C - INTERNALIZED, GAG^deficient (FLUOROMETRY) [2]: 1.7 ± 0.8 (n = 3) μM
- 4 °C - INTERNALIZED, GAG^deficient (FLUOROMETRY) ([2]; listed as CF-Penetratin): 1 to 2 µM
- 37 °C - INTERNALIZED, GAG^deficient (FLUOROMETRY) [2]: 7.0 ± 0.5 (n = 4) μM
- 4 °C - INTERNALIZED, SA^deficient (FLUOROMETRY) [3]: 1.0 ± 0.1 (n = 4) μM
- 4 °C - INTERNALIZED, SA^deficient (FLUOROMETRY) ([3]; listed as CF-Penetratin): 1 to 2 µM
- 37 °C - INTERNALIZED, SA^deficient (FLUOROMETRY) [3]: 33 ± 5.3 (n = 4) μM
- difference between total cell-associated and internalized fluorescence signals by flow cytometry [4]: 1.25 to 2 folds

Substance: Biotin-GGGGRQIKIWFQNRRMKWKK-NH2 [Biotin-PEN]
- 4 °C - INTERNALIZED, GAG^deficient (MALDI-TOF MS) ([5]; 4 °C, pronase digestion): 0.6 ± 0.1 µM
- 37 °C - INTERNALIZED, GAG^deficient (MALDI-TOF MS) [5, 11]: 1.9 ± 0.2 µM
- 4 °C - INTERNALIZED, WT (MALDI-TOF MS) ([6]; 4 °C (translocation only), 0.05% pronase digestion): 0.9 ± 0.2 µM
- 37 °C - INTERNALIZED, WT (MALDI-TOF MS) ([6]; 37 °C, membrane-bound peptide digested with 0.05% trypsin/EDTA, μM from 1 pL cell volume): 5.0 ± 0.5 µM
- 4 °C - INTERNALIZED, SA^deficient (MALDI-TOF MS) ([7]; 4 °C, pronase digestion): 1.0 ± 0.2 µM
- 37 °C - INTERNALIZED, SA^deficient (MALDI-TOF MS) [7, 11]: 6.0 ± 1.0 µM

Substance: Biotin-GGGG(εCF)KRQIKIWFQNRRMKWKK-NH2 [Biotin-(CF)PEN]
- cytotoxicity (cell viability, CCK-8) [8]: none of the peptides used in this study was cytotoxic
- 4 °C - INTERNALIZED, WT (FLUOROMETRY) [1]: 1.5 ± 0.1 (n = 10) μM
- 37 °C - INTERNALIZED, WT (FLUOROMETRY) [1]: 9.8 ±1.0 (n = 14) μM
- 37 °C - INTERNALIZED, GAG^deficient (FLUOROMETRY) [2]: 1.1 ± 0.1 (n = 4) μM
- 37 °C - INTERNALIZED, SA^deficient (FLUOROMETRY) [3]: 6.9 ± 1.8 (n = 3) μM
- 37 °C - INTERNALIZED, GAG^deficient (MALDI-TOF MS) [9]: Not detectable
- 4 °C - INTERNALIZED, WT (MALDI-TOF MS) ([10]; MALDI-TOF MS (sinapinic acid matrix), 2H-peptide internal standard, 10^6 adherent cells, 1 h, 4 °C, pronase digestion): Not detectable
- 37 °C - INTERNALIZED, WT (MALDI-TOF MS) ([10]; MALDI-TOF MS (sinapinic acid matrix), 2H-peptide internal standard, 10^6 adherent cells, 1 h, 37 °C, trypsin digestion, μM from 1 pL cell volume, mean ± spread, n in cell): 8.7 ± 1.1 (n = 19) μM
- intracellular degradation of the internalized peptide, from mass spectra ([10]; MALDI-TOF MS of cell lysate, one-hour incubation, 37 °C): not quickly degraded

Source: publication PMC5107916, “Quantitative fluorescence spectroscopy and flow cytometry analyses of cell-penetrating peptides internalization pathways: optimization, pitfalls, comparison with mass spectrometry quantification” (Scientific Reports, 2016)
